According to patent US20220062233A1 (The Board of Trustees of the Leland Stanford Junior …, priority 2018, published 2022):

Tests used:
[1] = target: T1, interaction between Supt4h and NGN (subunit of Supt5h) (Homo sapiens, UniProt O00267+P63272); assay: Split Gaussia luciferase complementation assay (M2-8 Luciferase); assay type: cell-based; conditions: M2-8 cells
T1 construct: expressed in transfected cells
In short: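 HEK293-derived M2-8 cells inducibly express Supt4h-Gluc1 and NGN-Gluc2 fragments (stabilizing mutations) on RheoSwitch ligand addition; ligand plus compound added 24 h after plating and left 24 h. Cells frozen, lysed with 10 μg/ml native coelenterazine, 1 h room temperature dark; complemented luciferase luminescence read.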

M2-8 cells = assay: M2-8 Cell viability Assay; assay type: cell-based; conditions: at the concentration of 1000 nM
mutant HTT [2] = assay: Mutant HTT assay in lymphoblastoid cells (LBC), Western blot; assay type: cell-based, human; conditions: read-out: LBC IC20 (nM) mHTT, 3 days compound treatment
Description: (§1) B. Mutant and Wild-Type HTT Assay in Lymphoblastoid Cells (LBC)
(§2) a. Cell Culturing and Compound Treatment
(§3) Lymphoblastoid cells derived from a Huntington's disease patient with 250 CAG repeats in the mutant HTT allele (GM14044 from Coriell Institute) were cultured in RPMI 1640 (Corning Cellgro, 10-040-CV) containing fetal bovine serum (Atlanta Biologicals, S11150). 4×10^5 cells were seeded on a 24-well plate and incubated with testing compound for 3 days. The cell suspension was then transferred to a 1.5 ml Eppendorf tube. Cells were collected by centrifugation and washed once with PBS. After all liquid was removed, the cell pellet was placed at −80° C. for at least 10 minutes. Lysis buffer [30 mM Tris-HCl (pH 8.0), 5 mM NaCl, 0.1% Triton X-100] with the proteinase inhibitor cocktail (P8340 from Sigma-Aldrich) was then added to the cells. Following centrifugation (14 k rpm for 15 min at 4° C.), the supernatant was collected. The protein concentrations were determined by BCA assay (Pierce, ThermoFisher).
(§4) Equal amounts of protein were loaded onto 4-12% gel (Invitrogen, WG1403A). After electrophoresis, the gels were transferred to nitrocellulose membranes by wet transfer at 72V for 3 hrs. […] The protein levels of mutant HTT, wild-type HTT, TBP, and tubulin were determined by immunoblotting with anti-polyQ specific antibody (clone MW1), anti-Huntingtin antibody (Abcam, ab45169), anti-TBP antibody (Sigma, T1827) and anti-alpha tubulin antibody (Sigma, T9026). Blots were imaged on a Li-Cor Odyssey infrared imager. The band intensities were determined by Li-Cor Odyssey software.

wild-type HTT = assay: Wild-type HTT assay in lymphoblastoid cells (LBC), Western blot; assay type: cell-based, human; conditions: 3 days compound treatment, read-out: LBC IC20 (nM) wtHTT
Description: as §1, §2, §3, §4

[3] = tested on: Lymphoblastoid cells (GM14044); assay: LBC cell viability (Cell Titer-Glo); assay type: cell-based, human; conditions: at the concentration of IC20, 3-day compound treatment
Description: Cell viability was determined by Cell Titer-Glo reagent (Promega, PRG9243). After 3-day compound treatment, 15 μl of cell suspension was taken out from plate and incubated with 10 μl of CTG reagent. The values of reaction mixture were detected by Tecan.

mutant HTT [4] = assay: Mutant HTT assay in induced pluripotent stem cells (iPSC); assay type: cell-based, human; conditions: HD patient iPSCs, one day incubation, read-out: iPSC IC20 (nM) mHTT
Description: C. Mutant HTT Assay in Induced Pluripotent Stem Cells (iPSC) a. Cell Culturing and Compound Treatment
Huntington's disease patient iPSCs (ND50036 from NINDS) were detached into single cells by Accutase (25058CI from Corning), counted and plated on a 24-well plate coated with Matrigel (354277 from Corning) at density of 7,000 cells/well. After 48 hrs, compounds were added to the cell culture medium mTeSR1 (85850 from StemCell Technologies) and the cells were incubated for one day. The medium was then removed, and the cells were washed with PBS. After all liquid was removed, the plate was placed at −80° C. overnight. Lysis buffer [30 mM Tris-HCl (pH 8.0), 5 mM NaCl, 0.1% Triton X-100] with the complete proteinase inhibitor cocktail (5892791001 from Sigma-Aldrich) was then added to the cells. Cell samples were lysed on an orbital plate shaker at 4° C. at 700 rpm for 30 min. The supernatants from spinning (14 k rpm for 10 min) were collected. The protein concentrations were determined by BCA assay (23225 from Pierce, ThermoFisher). […]
b. Detection of Mutant HTT Protein
Equal amounts of protein lysate collected from each sample were added to a 96-well plate that had been coated with a human HTT specific monoclonal antibody. After washing away any unbound substances, a biotinylated anti-human mutant HTT specific detection antibody was added. Streptavidin-horseradish peroxidase was subsequently added, followed by TMB Substrate Solution, which yielded a blue product that turns yellow when the Stop Solution was added. The intensity of the color measured was in proportion to the amount of mutant HTT bound in the initial step. The mutant HTT values are then interpolated from a standard curve.

[5] = tested on: Huntington's disease patient iPSCs (ND50036); assay: iPSC viability at IC20; assay type: cell-based, human; conditions: at the concentration of IC20
mouse hepatocytes = assay: In vitro metabolic stability in mouse hepatocytes; assay type: in vitro ADME
Description: A. In Vitro Metabolic Stability in Hepatocyte
A compound's metabolic stability was assessed using mouse hepatocytes incubated with pre-defined concentration of test articles over several incubation period. The extent of metabolism was calculated from the disappearance of the test compound measured by liquid chromatography mass spectrometry (LC-MS), compared to that of 0-min control. After incubation, quench solutions including internal standards were added and analyzed by LC/MS. The elimination rate constant and intrinsic clearance (CLhepatocyte) values were calculated by linear regression of the compound elimination over the duration of incubation, normalized to the cell number in the given volume of incubation medium.

Row | Structure (SMILES) | IC50 [1] [µM] | M2-8 Cell viability (M2-8 cells) | IC20 (mutant HTT [2]) [nM] | IC20 (wild-type HTT) [nM] | LBC viability at IC20 [3] | IC20 (mutant HTT [4]; class symbols) [nM] | iPSC viability at IC20 [5] | IC20 (mutant HTT [4]; numeric bounds) [nM] | Mouse HepStability (CLhepatocyte) (mouse hepatocytes)
1 | CC(C)(O)c1ccc(CN[C@@H]2CCCc3c2[nH]c2ccc(Br)nc32)s1 [Compound 66] | ≤ 0.1 | + (cell viability is greater than 50% at the concentration of 1000 nM) | < 100 | > 1000 | * (cell viability is greater than 60% at the concentration of IC20) | < 100 | + (cell viability is greater than 75% at the concentration of IC20) | – | –
2 | OB1OCc2cc(CN[C@@H]3CCCc4c3[nH]c3ccc(Br)cc43)ccc21 [Compound 37] | 0.101 to 0.3 | + (cell viability is greater than 50% at the concentration of 1000 nM) | 101 to 300 | > 1000 | * (cell viability is greater than 60% at the concentration of IC20) | – | – | > 100 | B (CLhepatocyte 10-30 μl/min/10^6cells)
3 | C=Cc1ccc2[nH]c3c(c2c1)CCC[C@H]3NCc1ccccc1 [Compound 45] | ≤ 0.1 | + (cell viability is greater than 50% at the concentration of 1000 nM) | < 100 | > 1000 | * (cell viability is greater than 60% at the concentration of IC20) | < 100 | + (cell viability is greater than 75% at the concentration of IC20) | – | –
4 | OB(O)c1ccc(CN[C@@H]2CCCc3c2[nH]c2ccc(Br)cc32)cc1 [Compound 38, (R)-(4-(((6-bromo-2,3,4,9-tetrahydro-1H-carbazol-1-yl)amino)methyl)phenyl)boronic acid] | ≤ 0.1 | + (cell viability is greater than 50% at the concentration of 1000 nM) | 101 to 300 | > 1000 | * (cell viability is greater than 60% at the concentration of IC20) | < 100 | + (cell viability is greater than 75% at the concentration of IC20) | – | C (CLhepatocyte >30 μl/min/10^6cells)
5 | C[C@@H](N[C@@H]1CCCc2c1[nH]c1ccc(Br)cc21)c1ccccc1 (single isomer, unassigned) [Compound 13] | ≤ 0.1 | + (cell viability is greater than 50% at the concentration of 1000 nM) | 101 to 300 | > 1000 | * (cell viability is greater than 60% at the concentration of IC20) | < 100 | + (cell viability is greater than 75% at the concentration of IC20) | – | –
6 | CC(C)(O)c1ccc(CN[C@@H]2CCCc3c2[nH]c2ccc(Br)nc32)cc1 [Compound 63] | ≤ 0.1 | + (cell viability is greater than 50% at the concentration of 1000 nM) | < 100 | > 500 | * (cell viability is greater than 60% at the concentration of IC20) | < 100 | + (cell viability is greater than 75% at the concentration of IC20) | – | –
7 | CC1(C)OB(c2ccc(CN[C@@H]3CCCc4c3[nH]c3ccc(Br)cc43)cc2)OC1(C)C [Compound 43, (R)-6-bromo-N-(4-(4,4,5,5-tetramethyl-1,3,2-dioxaborolan-2-yl)benzyl)-2,3,4,9-tetrahydro-1H-carbazol-1-amine] | ≤ 0.1 | + (cell viability is greater than 50% at the concentration of 1000 nM) | 101 to 300 | > 1000 | * (cell viability is greater than 60% at the concentration of IC20) | < 100 | + (cell viability is greater than 75% at the concentration of IC20) | – | –
8 | COCC(N[C@@H]1CCCc2c1[nH]c1ccc(Br)cc21)c1ccc(C(C)(C)O)cc1 (single isomer, unassigned) [Compound 52] | ≤ 0.1 | + (cell viability is greater than 50% at the concentration of 1000 nM) | < 100 | > 500 | * (cell viability is greater than 60% at the concentration of IC20) | < 100 | + (cell viability is greater than 75% at the concentration of IC20) | – | –
9 | Oc1ccc(CN[C@@H]2CCCc3c2[nH]c2ccc(Br)cc32)cc1 [Compound 60, (R)-4-(((6-bromo-2,3,4,9-tetrahydro-1H-carbazol-1-yl)amino)methyl)phenol] | ≤ 0.1 | + (cell viability is greater than 50% at the concentration of 1000 nM) | 101 to 300 | > 1000 | * (cell viability is greater than 60% at the concentration of IC20) | < 100 | + (cell viability is greater than 75% at the concentration of IC20) | – | –
10 | C[C@H](N[C@@H]1CCCc2c1[nH]c1ccc(Br)cc21)c1ccccc1 (single isomer, unassigned) [Compound 14] | ≤ 0.1 | + (cell viability is greater than 50% at the concentration of 1000 nM) | < 100 | > 1000 | * (cell viability is greater than 60% at the concentration of IC20) | < 100 | + (cell viability is greater than 75% at the concentration of IC20) | – | –
11 | COC(C)(C)c1ccc(CN[C@@H]2CCCc3c2[nH]c2ccc(Br)cc32)cc1 [Compound 48, (R)-6-bromo-N-(4-(2-methoxypropan-2-yl)benzyl)-2,3,4,9-tetrahydro-1H-carbazol-1-amine] | ≤ 0.1 | + (cell viability is greater than 50% at the concentration of 1000 nM) | < 100 | > 500 | * (cell viability is greater than 60% at the concentration of IC20) | < 100 | + (cell viability is greater than 75% at the concentration of IC20) | – | –
12 | OC1(c2ccc(CN[C@@H]3CCCc4c3[nH]c3ccc(Br)cc43)cc2)CC1 [Compound 50, (R)-1-(4-(((6-bromo-2,3,4,9-tetrahydro-1H-carbazol-1-yl)amino)methyl)phenyl) cyclopropan-1-ol] | ≤ 0.1 | + (cell viability is greater than 50% at the concentration of 1000 nM) | < 100 | > 500 | * (cell viability is greater than 60% at the concentration of IC20) | < 100 | + (cell viability is greater than 75% at the concentration of IC20) | – | –
